Experimental data: US11980609B2, “LPA receptor antagonists and uses thereof” (Gilead Sciences, Inc., priority 2021, dated 2024)

Biological target: T1, human LPAR1 (Homo sapiens, UniProt Q92633)
T1 construct: host or cells: CHO-K1
Assay: LPAR1 intracellular calcium mobilization assay (antagonist mode)
Type: cell-based
Conditions: CHO-K1 EDG2 cells expressing human LPAR1; 60 min pre-incubation with compound (0.5 nM to 10 μM), then LPA 18:2 challenge; FLIPR Tetra calcium signal
Description: In vitro LPAR1 activity was measured in an intracellular calcium mobilization assay.
CHO-K1 EDG2 cells (DiscoverX cat #93-0644C2) expressing human LPAR1 (NM_001401.3) were seeded in a total volume of 25 μL of Dulbecco's Modification of Eagle's Medium (DMEM) with 10% Fetal Bovine Serum, 1× PenStrepGlutamine, 300 μg/ml Hygromycin, and 800 μg/ml G418 into 384-well tissue culture plate (Grenier #781091) at 15,000 cells/well and incubated at 37° C. overnight. Prior to testing, 25 μL Calcium Loading Dye Component A (FLIPR Calcium 6 Assay Kit Molecular Device #R8190) and 2.5 mM Probenecid (Invitrogen #P36400, prepared fresh) in Hank's Balanced Salt Solution (Corning #21-023-CV), 20 mM HEPES (Corning #25-060-CI), 0.1% Bovine Serum Albumin (Sigma-Aldrich #A7906-500G) was add to the cells for 60 minutes at 37° C.
Agonist dose curves of LPA 18:2 (Avanti Polar Lipids cat #857138, 0.5 nM to 10 μM) were recorded to determine the LPA 18:2 EC80 for subsequent antagonist assays. For agonist dose curves, cells were removed from the incubator 2 hours after dye loading and transferred to the FLIPR Tetra instrument (Molecular Devices, San Jose, CA). Calcium mobilization was monitored for 5 min and 10 μL 6×LPA in HBSS/20 mM Hepes/0.1% bovine serum albumin (BSA) was added to the cells 5 seconds into the assay.
To determine the LPAR1 antagonist activity of test compounds, cells were pre-incubated with test compound at a dose range of 0.5 nM to 10 μM, followed by LPA at […] concentration (100 nM). After dye loading, cells were removed from the incubator and 0.3 μL of 200× antagonist was added. Cells were incubated for 60 minutes at 37° C. Antagonist activity was measured on a FLIPR Tetra. Calcium mobilization was monitored for 3.5 minutes and 10 μL 6×EC80 LPA in HBSS, 20 mM HEPES, and 0.1% BSA was added to the cells 5 seconds into the assay. Signal amplitude (Maximum minus minimum) values were plotted against log10 of antagonist concentration using Dose Response Tool (Gilead Sciences Inc.) to determine EC50.
To assess the antagonistic potential of exemplified compounds EC50 values were determined for Compounds 1 to 55 in the LPAR1 calcium mobilization assay. The compound numbers correspond to the compound numbers in Examples 1 to 35. N/A=not available.

T1 sequence (Q92633 whole entry): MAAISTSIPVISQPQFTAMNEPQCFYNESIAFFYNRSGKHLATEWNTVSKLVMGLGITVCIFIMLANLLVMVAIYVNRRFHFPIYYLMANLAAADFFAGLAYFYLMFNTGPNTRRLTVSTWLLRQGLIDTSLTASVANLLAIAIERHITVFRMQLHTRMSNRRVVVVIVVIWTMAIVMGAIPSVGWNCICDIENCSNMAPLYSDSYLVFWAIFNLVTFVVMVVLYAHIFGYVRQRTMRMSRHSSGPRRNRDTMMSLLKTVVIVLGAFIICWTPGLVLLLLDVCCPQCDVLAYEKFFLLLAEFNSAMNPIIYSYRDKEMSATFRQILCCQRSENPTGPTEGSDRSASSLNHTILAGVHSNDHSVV

Row | SMILES | EC50
1 | C[C@@H](OC(=O)Nc1c(-c2ncc(O)cc2F)cnn1C)c1cccnc1Cl [Compound 10, (R)-1-(2-chloropyridin-3-yl)ethyl (4-(3-fluoro-5-hydroxypyridin-2-yl)-1-methyl-1H-pyrazol-5-yl)carbamate] | 56.8 nM
2 | C[C@@H](OC(=O)Nc1c(-c2ncc(NC(=O)C3(C#N)CC3)cn2)cnn1C)c1cc(F)cnc1Cl [Compound 23, (R)-1-(2-chloro-5-fluoropyridin-3-yl)ethyl (4-(5-(1-cyanocyclopropane-1-carboxamido)pyrimidin-2-yl)-1-methyl-1H-pyrazol-5-yl)carbamate] | 16.8 nM
3 | C[C@@H](OC(=O)Nc1c(-c2ncc(NC(=O)C34CC(C(F)F)(C3)C4)cn2)cnn1C)c1cc(F)cnc1F [Compound 31, (R)-1-(2,5-difluoropyridin-3-yl)ethyl (4-(5-(3-(difluoromethyl)bicyclo[1.1.1]pentane-1-carboxamido)pyrimidin-2-yl)-1-methyl-1H-pyrazol-5-yl)carbamate] | 23.7 nM

Next, values leading:

Row | EC50 | SMILES
4 | 120 nM | C[C@@H](OC(=O)Nc1c(-c2ncc(O)cn2)cnn1C)c1cccnc1Cl [Compound 44, (R)-1-(2-chloropyridin-3-yl)ethyl (4-(5-hydroxypyrimidin-2-yl)-1-methyl-1H-pyrazol-5-yl)carbamate]
5 | 52.7 nM | C[C@@H](OC(=O)Nc1c(-c2ncc(NC(=O)[C@]3(C)C[C@@H](C#N)C3)cn2)cnn1C)c1cc(F)cnc1F [Compound 38, (R)-1-(2,5-difluoropyridin-3-yl)ethyl (4-(5-((1r,3R)-3-cyano-1-methylcyclobutane-1-carboxamido)pyrimidin-2-yl)-1-methyl-1H-pyrazol-5-yl)carbamate]
